The test system of series [1] is primary patient GBM cells. Briefly: MTT cell viability assay. Format: cell-based, human. To be noted: 72 h, mean±SD, 3 patients. From the text:
This study was approved by the Research Ethics Board at the University of Western Ontario (Approval #17290). GBM specimens were obtained at the time of operative resection and placed immediately into phosphate-buffered saline (PBS) with 0.5% fetal bovine serum (FBS; Life Technologies, Burlington, ON, Canada). The tissue was washed, digested and filtered through a 100-μm cell strainer. Samples were then centrifuged and resuspended in Dulbecco's modified Eagle's medium (DMEM; Wisent Bioproducts, St. Bruno, PQ, Canada) supplemented with 10% FBS, 1% non-essential amino acids and 1% penicillin/streptomycin (Life Technologies) before plating to a 35-mm dish for 30 min to allow blood cells to separate. The upper cell suspension was then transferred to two wells of a 24-well plate, freshly pre-coated with 10 μg/ml poly-L-lysine (Trevigen Inc., Gaithersburg, Md., USA) and incubated at 37° C. with 5% CO2. […]
Primary human patient GBM cells (1×10^5 cells in 2 ml maintenance DMEM) were seeded into one 35 mm well equipped with the IMT system and allowed to grow to ˜70% confluence. […] In the IMT-siRNA conditions, IMT was initiated at the time of transfection and maintained for the entire 48 h, after which the extent of target knockdown and GBM cell viability were assessed.
Cell viability was evaluated using the 3-(4,5-dimethylthiazol-2-yl)-2,5-diphenyltetrazolium (MTT) spectral analysis (Sigma Aldrich). […]
A general note: Tetrazolium dyes change colour on reduction, which living cells bring about.

Series [2] has as its system primary patient GBM cells. The series can be described thus: Annexin V / propidium iodide flow cytometry of apoptotic and dead cells. In kind it is cell-based, human. To be noted: 72 h; for combined fraction of apoptotic (annexin+) and dead (annexin+ and PI+) GBM cells: mean±SD, cells from 3 patients. From the text:
This study was approved by the Research Ethics Board at the University of Western Ontario (Approval #17290). GBM specimens were obtained at the time of operative resection and placed immediately into phosphate-buffered saline (PBS) with 0.5% fetal bovine serum (FBS; Life Technologies, Burlington, ON, Canada). The tissue was washed, digested and filtered through a 100-μm cell strainer. Samples were then centrifuged and resuspended in Dulbecco's modified Eagle's medium (DMEM; Wisent Bioproducts, St. Bruno, PQ, Canada) supplemented with 10% FBS, 1% non-essential amino acids and 1% penicillin/streptomycin (Life Technologies) before plating to a 35-mm dish for 30 min to allow blood cells to separate. The upper cell suspension was then transferred to two wells of a 24-well plate, freshly pre-coated with 10 μg/ml poly-L-lysine (Trevigen Inc., Gaithersburg, Md., USA) and incubated at 37° C. with 5% CO2. Cultures were passaged at approximately 80% confluence and split 1:2 using 0.25% trypsin with 0.53 mM ethylenediaminetetraacetic acid (EDTA; Wisent). The medium was changed twice per week. All assays were conducted using GBM cells from cultures at passages 4 through 12.
GBM cells (2×10^5 cells in 2 ml maintenance DMEM) were transferred to the 35 mm wells in standard 6-well plates and allowed to grow to ˜70% confluence before treatment. A clinical grade, platinum-based reference strip electrode (AD-Tech, Racine, Wis., USA) around the periphery and a stimulating electrode (Medtronic Ltd., Brampton, ON, Canada) in the centre of the well. The electrodes were connected to a waveform generator set to produce monophasic, square-wave pulses of 4 volts, with pulse width of 90 μsec and frequency of 130 Hz. This setting is in the range of that commonly used in clinical neuromodulation treatment for symptoms of movement disorders, such as Parkinson's disease (11). Control wells (i.e. sham-treated) were fitted with electrodes but no current was delivered. Treatment durations between 24-96 h were used to allow adequate time for antitumor effect while avoiding the need for medium change once IMT was initiated. Thus, all intact GBM cells, adherent and floating, contributed to the viability measures described below. GBM cells treated with chemotherapy were plated with DMEM containing temozolomide (50 μM; Sigma Aldrich) in 35 mm wells fitted with the IMT apparatus and received 72 h of concomitant IMT or sham conditions. The 50 μM temozolomide concentration reflects clinically relevant levels corresponding to the in vivo plasma concentration of 150 mg/m2 in the adjuvant phase of GBM treatment (24).
An Annexin V Apoptosis Detection Kit with propidium iodide (PI; BioLegend, San Diego, Calif., USA) was used for identification of apoptotic and dead cells, as per the manufacturer's instructions. Cell fractions were analyzed using a Becton Dickinson LSR II SORP flow cytometer running FACSDiva software (BD Biosciences, Mississauga, ON, Canada). Cells were first gated on forward scatter (FSC-) versus side scatter (SSC-) characteristics before excluding doublets using consecutive gating FSC-Area versus FSC-Width and SSC-Area versus SSC-Width plots. The populations of annexin V+/PI−, annexin V+/PI+, annexin V−/PI+ and annexin V−/PI− were then calculated with quadrant gates. Approximately 30,000 single cells were acquired per sample at a maximum event rate of 5,000 events per second. Data were analyzed using FlowJo v 9.6.3 (TreeStar, Inc., Ashland, Oreg., USA).
(A flow cytometer gives signals particle by particle.)

Where [3] appears, read: temozolomide 50 μM combined with IMT (4 V, 130 Hz).
[4] abbreviates: temozolomide 50 μM, with concomitant IMT (4 V, 130 Hz), representative scatterplot.
Where [5] appears, read: temozolomide 50 μM, without IMT, representative scatterplot.

What is called viability is the share of living cells, or the viability signal relative to a control. `Cn1nnc2c(C(N)=O)ncn2c1=O` [temozolomide]: the viability at 50 µM in series [1] (Homo sapiens, temozolomide 50 μM alone, read-out: viability relative to untreated cells (MTT)) came out at 69.7 ± 11.8%. In addition, the “viability relative to untreated cells (MTT)” value in series [1] (setting [3]) stood at 29.1±3.2%. In addition, the “combined fraction of apoptotic (annexin+) and dead (annexin+ and PI+) GBM cells” value in series [2] (single-modality temozolomide 50 μM) stood at 16.9±7.4%. Further, the “combined fraction of apoptotic (annexin+) and dead (annexin+ and PI+) GBM cells” value in series [2] (setting [3]) is reported as 52.4±21.8%. For the same compound, in series [2] (setting [4]), the “dead cells (annexin and PI-positive), FIG. 4 scatterplot” value came out at 16%; the “live cells, FIG. 4 scatterplot” value came to 25.2%. For the same compound, in series [2] (setting [5]), the “apoptotic cells (annexin-positive), FIG. 4 scatterplot” value is 14.1%; the “dead cells (annexin and PI-positive), FIG. 4 scatterplot” value came to 9.4%; the “live cells, FIG. 4 scatterplot” value was 76.1%.

These data come from patent publication US11167133B2, “Intratumoral modulation therapy” (LONDON HEALTH SCIENCES CENTRE RESEARCH INC., priority 2015, dated 2021).
